Measurements reported in ChEMBL document CHEMBL1150977, “A quantitative analysis of kinase inhibitor selectivity” (Nat Biotechnol, 2008).

What was measured:
[1] = target: Platelet-derived growth factor receptor alpha (Homo sapiens, UniProt P16234)
[2] = target: Fibroblast growth factor receptor 2 (Homo sapiens, UniProt P21802)
[3] = target: Serine/threonine-protein kinase PAK 1 (Homo sapiens, UniProt Q13153)
[4] = target: Cyclin-dependent kinase 11B (Homo sapiens, UniProt P21127)
[5] = target: T1, Tyrosine-protein kinase ITK/TSK (Homo sapiens, UniProt Q08881)
T1 sequence (Q08881 whole entry): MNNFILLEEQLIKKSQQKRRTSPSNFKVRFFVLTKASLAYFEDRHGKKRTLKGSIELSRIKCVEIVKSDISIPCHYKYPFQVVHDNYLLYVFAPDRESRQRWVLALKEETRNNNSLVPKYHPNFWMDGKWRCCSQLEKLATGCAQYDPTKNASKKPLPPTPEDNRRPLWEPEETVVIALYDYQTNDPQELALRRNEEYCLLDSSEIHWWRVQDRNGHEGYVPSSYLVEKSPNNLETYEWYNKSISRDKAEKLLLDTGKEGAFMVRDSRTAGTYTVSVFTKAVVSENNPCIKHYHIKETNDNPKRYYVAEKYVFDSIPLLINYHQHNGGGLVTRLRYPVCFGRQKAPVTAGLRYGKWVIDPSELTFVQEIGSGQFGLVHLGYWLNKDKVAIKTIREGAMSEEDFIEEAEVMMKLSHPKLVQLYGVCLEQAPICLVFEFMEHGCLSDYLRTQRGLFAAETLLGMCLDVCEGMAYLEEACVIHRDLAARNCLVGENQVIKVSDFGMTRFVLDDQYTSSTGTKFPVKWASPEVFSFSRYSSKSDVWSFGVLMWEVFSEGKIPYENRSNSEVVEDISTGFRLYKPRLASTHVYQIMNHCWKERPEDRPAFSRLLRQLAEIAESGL

[6] = target: Casein kinase I isoform gamma-1 (Homo sapiens, UniProt Q9HCP0)
Chain of Casein kinase I isoform gamma-1 (Q9HCP0 whole entry, canonical isoform): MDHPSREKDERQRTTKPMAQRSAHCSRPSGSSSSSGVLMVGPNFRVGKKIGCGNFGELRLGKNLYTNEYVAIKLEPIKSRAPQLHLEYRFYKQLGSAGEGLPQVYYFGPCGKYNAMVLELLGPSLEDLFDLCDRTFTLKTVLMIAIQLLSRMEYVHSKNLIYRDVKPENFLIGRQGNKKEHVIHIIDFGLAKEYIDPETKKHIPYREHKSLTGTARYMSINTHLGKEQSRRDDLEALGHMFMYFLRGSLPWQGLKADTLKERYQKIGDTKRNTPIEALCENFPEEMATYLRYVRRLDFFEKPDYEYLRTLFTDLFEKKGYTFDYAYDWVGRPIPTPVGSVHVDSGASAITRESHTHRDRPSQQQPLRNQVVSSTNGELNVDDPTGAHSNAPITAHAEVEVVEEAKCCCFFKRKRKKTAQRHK

[7] = target: T2, Serine/threonine-protein kinase Nek2 (Homo sapiens, UniProt P51955)
T2 sequence (P51955 whole entry): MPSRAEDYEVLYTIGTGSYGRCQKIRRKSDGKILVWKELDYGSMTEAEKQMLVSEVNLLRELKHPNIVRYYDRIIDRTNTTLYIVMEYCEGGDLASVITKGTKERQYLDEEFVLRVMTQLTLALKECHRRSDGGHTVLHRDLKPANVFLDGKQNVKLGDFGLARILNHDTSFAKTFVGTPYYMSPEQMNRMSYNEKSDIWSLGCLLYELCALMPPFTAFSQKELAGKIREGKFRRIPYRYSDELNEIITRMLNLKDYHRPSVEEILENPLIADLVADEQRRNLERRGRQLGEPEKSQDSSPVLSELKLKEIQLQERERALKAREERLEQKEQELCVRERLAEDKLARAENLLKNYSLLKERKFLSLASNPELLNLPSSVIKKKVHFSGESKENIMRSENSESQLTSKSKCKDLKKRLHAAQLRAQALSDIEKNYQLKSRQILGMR

[8] = target: T3, Aurora kinase C (Homo sapiens, UniProt Q9UQB9)
T3 sequence (Q9UQB9 whole entry): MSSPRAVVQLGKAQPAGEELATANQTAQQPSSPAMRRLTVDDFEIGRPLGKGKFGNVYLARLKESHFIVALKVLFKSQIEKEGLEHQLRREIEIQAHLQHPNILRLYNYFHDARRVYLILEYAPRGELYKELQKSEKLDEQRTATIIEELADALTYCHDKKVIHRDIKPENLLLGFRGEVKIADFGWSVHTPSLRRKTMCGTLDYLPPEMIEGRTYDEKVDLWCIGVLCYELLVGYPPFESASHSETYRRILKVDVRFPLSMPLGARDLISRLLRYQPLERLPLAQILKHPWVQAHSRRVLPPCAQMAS

[9] = target: T4, Cyclin-G-associated kinase (Homo sapiens, UniProt O14976)
T4 sequence (O14976 whole entry): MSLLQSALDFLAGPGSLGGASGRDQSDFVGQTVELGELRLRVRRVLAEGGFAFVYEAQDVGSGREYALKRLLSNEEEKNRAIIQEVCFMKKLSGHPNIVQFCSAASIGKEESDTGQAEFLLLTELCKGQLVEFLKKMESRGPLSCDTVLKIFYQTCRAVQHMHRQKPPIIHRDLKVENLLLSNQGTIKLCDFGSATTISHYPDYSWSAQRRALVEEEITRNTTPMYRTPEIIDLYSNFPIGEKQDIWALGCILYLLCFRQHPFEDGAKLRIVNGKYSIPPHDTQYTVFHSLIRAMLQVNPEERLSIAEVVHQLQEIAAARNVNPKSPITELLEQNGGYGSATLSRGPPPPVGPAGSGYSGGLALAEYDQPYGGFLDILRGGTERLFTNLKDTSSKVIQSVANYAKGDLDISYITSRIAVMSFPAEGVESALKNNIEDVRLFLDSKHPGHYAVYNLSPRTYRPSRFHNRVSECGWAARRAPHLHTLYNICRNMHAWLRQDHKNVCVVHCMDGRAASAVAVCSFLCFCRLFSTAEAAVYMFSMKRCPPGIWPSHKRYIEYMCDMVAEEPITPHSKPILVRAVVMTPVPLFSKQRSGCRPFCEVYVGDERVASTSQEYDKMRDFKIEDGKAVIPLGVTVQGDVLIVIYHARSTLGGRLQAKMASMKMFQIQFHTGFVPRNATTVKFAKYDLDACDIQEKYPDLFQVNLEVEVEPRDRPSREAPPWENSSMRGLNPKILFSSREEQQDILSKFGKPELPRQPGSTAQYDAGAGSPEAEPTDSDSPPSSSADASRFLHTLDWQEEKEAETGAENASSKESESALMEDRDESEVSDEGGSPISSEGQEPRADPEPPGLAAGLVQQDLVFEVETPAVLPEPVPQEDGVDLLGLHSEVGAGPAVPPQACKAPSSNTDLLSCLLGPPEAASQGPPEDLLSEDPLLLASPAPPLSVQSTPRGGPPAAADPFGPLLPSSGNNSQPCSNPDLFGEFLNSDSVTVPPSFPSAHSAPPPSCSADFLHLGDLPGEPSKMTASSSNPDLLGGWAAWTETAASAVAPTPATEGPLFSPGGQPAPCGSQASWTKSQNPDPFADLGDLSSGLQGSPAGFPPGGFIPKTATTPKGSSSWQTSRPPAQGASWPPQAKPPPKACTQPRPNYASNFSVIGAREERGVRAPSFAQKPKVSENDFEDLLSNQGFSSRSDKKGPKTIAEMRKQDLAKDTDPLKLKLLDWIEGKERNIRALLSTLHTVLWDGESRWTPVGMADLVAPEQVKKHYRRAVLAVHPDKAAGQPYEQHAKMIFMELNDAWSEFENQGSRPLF

[10] = target: Protein kinase C eta type (Homo sapiens, UniProt P24723)
Chain of Protein kinase C eta type (P24723 whole entry): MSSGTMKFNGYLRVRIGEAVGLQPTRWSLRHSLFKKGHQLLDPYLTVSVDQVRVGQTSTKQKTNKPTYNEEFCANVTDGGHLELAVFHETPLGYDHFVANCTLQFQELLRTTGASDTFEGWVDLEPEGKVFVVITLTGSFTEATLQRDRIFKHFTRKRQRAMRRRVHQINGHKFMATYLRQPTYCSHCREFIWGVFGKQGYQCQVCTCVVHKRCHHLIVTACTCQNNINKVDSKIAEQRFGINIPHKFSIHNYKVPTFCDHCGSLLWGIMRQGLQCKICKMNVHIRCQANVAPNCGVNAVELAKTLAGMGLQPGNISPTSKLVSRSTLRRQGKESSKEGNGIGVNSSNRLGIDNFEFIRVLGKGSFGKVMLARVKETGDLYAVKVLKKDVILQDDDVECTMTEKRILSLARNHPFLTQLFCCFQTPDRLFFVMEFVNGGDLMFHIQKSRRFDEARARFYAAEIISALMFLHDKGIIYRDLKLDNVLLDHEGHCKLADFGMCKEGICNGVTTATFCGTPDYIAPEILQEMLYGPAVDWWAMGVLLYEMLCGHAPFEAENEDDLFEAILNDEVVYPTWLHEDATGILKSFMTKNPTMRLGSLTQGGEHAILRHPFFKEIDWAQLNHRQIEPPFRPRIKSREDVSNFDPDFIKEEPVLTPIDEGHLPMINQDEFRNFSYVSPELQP

Chain of Fibroblast growth factor receptor 2 (P21802 whole entry): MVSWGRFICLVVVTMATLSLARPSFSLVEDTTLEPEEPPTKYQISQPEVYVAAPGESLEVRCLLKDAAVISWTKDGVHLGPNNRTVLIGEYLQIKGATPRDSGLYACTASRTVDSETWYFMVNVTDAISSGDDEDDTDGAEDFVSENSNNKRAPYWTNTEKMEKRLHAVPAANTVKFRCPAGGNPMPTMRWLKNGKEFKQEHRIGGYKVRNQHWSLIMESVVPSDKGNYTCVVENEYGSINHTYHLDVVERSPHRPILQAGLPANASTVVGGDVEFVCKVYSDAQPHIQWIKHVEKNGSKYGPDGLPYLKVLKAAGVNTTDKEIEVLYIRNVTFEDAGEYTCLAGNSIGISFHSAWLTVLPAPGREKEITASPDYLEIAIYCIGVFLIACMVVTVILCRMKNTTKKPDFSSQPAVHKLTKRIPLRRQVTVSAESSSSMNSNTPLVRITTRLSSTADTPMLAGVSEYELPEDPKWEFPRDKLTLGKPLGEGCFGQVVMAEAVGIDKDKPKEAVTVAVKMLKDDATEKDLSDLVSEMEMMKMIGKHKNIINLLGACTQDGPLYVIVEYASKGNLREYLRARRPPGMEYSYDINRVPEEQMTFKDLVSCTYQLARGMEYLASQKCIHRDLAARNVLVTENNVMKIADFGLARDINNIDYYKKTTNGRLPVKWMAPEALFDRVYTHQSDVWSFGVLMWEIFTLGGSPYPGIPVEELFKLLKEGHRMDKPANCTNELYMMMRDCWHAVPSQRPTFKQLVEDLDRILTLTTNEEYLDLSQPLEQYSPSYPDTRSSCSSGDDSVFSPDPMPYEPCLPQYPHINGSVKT
Chain of Cyclin-dependent kinase 11B (P21127 whole entry): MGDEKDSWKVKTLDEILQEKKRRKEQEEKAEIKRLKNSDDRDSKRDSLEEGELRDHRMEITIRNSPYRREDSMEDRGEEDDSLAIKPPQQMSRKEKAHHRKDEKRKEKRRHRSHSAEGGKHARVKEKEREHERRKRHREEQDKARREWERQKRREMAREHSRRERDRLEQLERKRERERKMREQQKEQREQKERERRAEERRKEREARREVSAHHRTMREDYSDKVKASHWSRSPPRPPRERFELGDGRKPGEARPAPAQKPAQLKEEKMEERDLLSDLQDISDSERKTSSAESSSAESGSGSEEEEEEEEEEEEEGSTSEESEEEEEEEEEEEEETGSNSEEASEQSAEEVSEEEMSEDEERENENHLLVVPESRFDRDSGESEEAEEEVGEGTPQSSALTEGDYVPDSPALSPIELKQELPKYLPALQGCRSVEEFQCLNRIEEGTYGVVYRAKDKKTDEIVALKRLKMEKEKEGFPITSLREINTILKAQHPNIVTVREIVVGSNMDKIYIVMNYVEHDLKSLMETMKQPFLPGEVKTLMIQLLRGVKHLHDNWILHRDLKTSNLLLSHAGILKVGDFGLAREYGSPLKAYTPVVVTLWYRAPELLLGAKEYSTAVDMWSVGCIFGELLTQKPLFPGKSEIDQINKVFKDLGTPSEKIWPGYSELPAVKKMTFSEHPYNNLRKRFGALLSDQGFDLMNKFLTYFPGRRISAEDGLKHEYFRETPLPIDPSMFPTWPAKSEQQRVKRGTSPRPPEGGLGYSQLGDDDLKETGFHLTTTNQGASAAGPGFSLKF
Chain of Platelet-derived growth factor receptor alpha (P16234 whole entry): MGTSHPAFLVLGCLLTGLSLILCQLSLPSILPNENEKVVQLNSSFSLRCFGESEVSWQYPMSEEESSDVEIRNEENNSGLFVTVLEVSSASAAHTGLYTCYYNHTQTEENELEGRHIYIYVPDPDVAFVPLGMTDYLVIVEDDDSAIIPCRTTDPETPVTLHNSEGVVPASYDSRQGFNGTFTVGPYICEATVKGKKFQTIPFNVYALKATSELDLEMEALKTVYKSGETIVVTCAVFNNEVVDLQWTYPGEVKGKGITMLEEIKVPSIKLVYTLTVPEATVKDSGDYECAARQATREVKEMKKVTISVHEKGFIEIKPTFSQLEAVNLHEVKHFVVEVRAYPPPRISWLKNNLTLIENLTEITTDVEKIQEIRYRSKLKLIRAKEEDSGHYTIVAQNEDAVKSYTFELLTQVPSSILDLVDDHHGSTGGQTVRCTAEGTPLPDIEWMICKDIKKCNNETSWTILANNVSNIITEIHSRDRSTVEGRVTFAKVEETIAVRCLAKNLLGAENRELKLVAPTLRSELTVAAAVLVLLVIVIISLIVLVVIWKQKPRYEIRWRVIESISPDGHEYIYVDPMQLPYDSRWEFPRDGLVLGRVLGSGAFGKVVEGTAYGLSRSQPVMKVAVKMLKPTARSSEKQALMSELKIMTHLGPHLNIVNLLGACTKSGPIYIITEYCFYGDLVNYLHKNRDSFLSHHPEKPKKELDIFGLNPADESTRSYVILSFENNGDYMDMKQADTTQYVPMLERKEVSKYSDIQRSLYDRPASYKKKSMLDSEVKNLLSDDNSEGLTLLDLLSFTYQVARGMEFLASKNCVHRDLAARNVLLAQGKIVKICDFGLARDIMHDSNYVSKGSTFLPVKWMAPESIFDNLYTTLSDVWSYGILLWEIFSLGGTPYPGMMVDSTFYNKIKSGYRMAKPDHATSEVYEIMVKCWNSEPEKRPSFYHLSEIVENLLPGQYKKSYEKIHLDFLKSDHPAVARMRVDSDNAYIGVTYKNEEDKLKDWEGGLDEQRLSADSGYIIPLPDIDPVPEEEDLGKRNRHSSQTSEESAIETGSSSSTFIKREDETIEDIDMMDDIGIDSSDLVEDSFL
Chain of Serine/threonine-protein kinase PAK 1 (Q13153 whole entry): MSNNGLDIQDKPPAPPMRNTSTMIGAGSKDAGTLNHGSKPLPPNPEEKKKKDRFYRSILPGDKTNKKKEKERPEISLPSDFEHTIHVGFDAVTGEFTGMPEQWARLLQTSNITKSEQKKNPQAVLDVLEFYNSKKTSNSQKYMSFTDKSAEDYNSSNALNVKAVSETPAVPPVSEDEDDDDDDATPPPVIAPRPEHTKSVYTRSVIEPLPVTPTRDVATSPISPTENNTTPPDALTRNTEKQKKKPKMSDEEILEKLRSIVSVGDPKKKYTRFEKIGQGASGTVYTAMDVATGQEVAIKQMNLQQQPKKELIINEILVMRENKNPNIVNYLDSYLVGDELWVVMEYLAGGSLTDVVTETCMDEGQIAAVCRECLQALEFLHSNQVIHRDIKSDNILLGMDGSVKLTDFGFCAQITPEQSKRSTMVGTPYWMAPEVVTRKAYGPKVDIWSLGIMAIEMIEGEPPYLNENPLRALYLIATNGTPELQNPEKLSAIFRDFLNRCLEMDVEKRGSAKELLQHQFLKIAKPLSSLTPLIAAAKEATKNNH

Row | Structure (SMILES) | Kd [1] | Kd [2] | Kd [3] | Kd [4] | Kd [5] | Kd [6] | Kd [7] | Kd [8] | Kd [9] | Kd [10]
1 | COCC(=O)NC/C=C/c1ccc2ncnc(Nc3ccc(Oc4ccc(C)nc4)c(C)c3)c2c1 [CP-724714] | > 10 µM | > 10 µM | > 10 µM | > 10 µM | > 10 µM | > 10 µM | > 10 µM | > 10 µM | > 10 µM | > 10 µM
2 | Nc1nc(Nc2ccc(S(N)(=O)=O)cc2)nn1C(=O)c1c(F)cccc1F [JNJ-7706621] |  |  | > 10 µM |  | > 10 µM |  |  | 0.086 µM |  | > 10 µM
3 | CCOc1cc2ncc(C#N)c(Nc3ccc(F)c(Cl)c3)c2cc1NC(=O)/C=C/CN(C)C [PELITINIB] | > 10 µM | > 10 µM |  | > 10 µM |  | > 10 µM |  | > 10 µM | 0.0064 µM | > 10 µM
4 | Oc1ccc(-c2nc(-c3ccncc3)c(-c3ccc(F)cc3)[nH]2)cc1 [SB-202190] | > 10 µM | > 10 µM | > 10 µM | > 10 µM | > 10 µM | > 10 µM | > 10 µM | > 10 µM |  | > 10 µM
5 | NC(=O)c1ccc(-c2nc(-c3ccc4c(c3)OCO4)c(-c3ccccn3)[nH]2)cc1 [SB-431542] | > 10 µM | > 10 µM | > 10 µM | > 10 µM | > 10 µM |  | > 10 µM | > 10 µM | > 10 µM | > 10 µM
